# Laboratory results published in patent US5914327A, “Biaryl-pyridoquinazolinone derivatives as anti-cancer agents” (American Cyanamid Company, priority 1997, dated 1999).
# Where a name gives a salt, the structure may show the parent alone.
# What was measured:
# [1] = tested on: COLON 26; assay: Murine Colon 26 Advanced, Metastatic Tumor; type: in vivo, murine (CD2F1 mice)
# Method: (§1) Murine Tumor Standard Pharmacological Test Procedures
# Murine Colon 26 Advanced, Metastatic Tumor
# CD2F1 mice are injected i.p. with 5×10^5 tumor cells on Day 0 of the test. […]
# [2] = tested on: A2780 DDP; assay: In vitro cytotoxicity, two cell line test procedure (A2780 DDP); type: cell-based; details: Homo sapiens, 48 hours exposure, sulforhodamine B, cisplatin-resistant
# Method: (§2) Description of the two cell line test procedure
# (§3) A2780 S and A2780 DDP cells [Biochemical and Molecular Properties of Cisplatin-resistant A2780 Cells Grown in Folinic Acid; Y. Lu, J. Hnan, and K. Scanlon, J. Biol. Chem., 263, 4891-4894, 1988.] are grown in RPMI 1640 medium containing 5% fetal calf serum, 50 μg/ml streptomycin, 50 units/ml penicillin, 50 μg/ml gentamycin, 0.03% L-glutamine, 1 nM estradiol, 1 nM testosterone, 5 μg/mlinsulin, 5 μg/ml transferrin, and 5 ng/ml selenous acid, at 37° C., in a humidified atmosphere, containing 5% CO2. Experiments are done in the same media.
# (§4) Cells are plated at the concentration of 5×10^4 /ml on Day 0 of the experiment. On Day one control cells are fixed with trichloroacetic acid and 5 ten fold dilutions of tested compounds are added, in duplicates, to the remaining cells. On Day 3 (48 hours exposure to drugs) all cells are fixed with trichloroacetic acid, stained with 0.4% sulforhodamine B, and absorbency is read at 520 nm. The IC50s (concentration causing 50% inhibition) are determined for each drug.
# [3] = tested on: LS174T; assay: Human Tumor Xenograft Standard Pharmacological Test Procedure; type: in vivo, human tumor in athymic nude mice; details: days 1,5,9
# Text: Human Tumor Xenograft Standard Pharmacological Test Procedure
# [4] = tested on: A2780 S; assay: In vitro cytotoxicity, two cell line test procedure (A2780 S); type: cell-based; details: Homo sapiens, A2780S; 48 hours exposure, sulforhodamine B
# Method: as §2, §3, §4
# [5] = tested on: P388; assay: Murine P388 Leukemia; type: in vivo, murine (CD2F1 mice); details: days 1,5,9
# Method: as §1
# CD2F1 mice are injected i.p. with 1×10^6 tumor cells on Day 0 of the test. Drugs are administered i.p. on Days 1, 5, and 9 after the tumor implantation.
# [6] = tested on: P388; assay: Murine P388 Leukemia; type: in vivo, murine (CD2F1 mice); details: 200 mg/kg i.p., days 1,5
# [7] = tested on: P388; details: Denny et al., Mutation Research 232: 233 (1990); cited from earlier work
# [8] = Denny et al., Mutation Research 232: 233 (1990); cited from earlier work
Compound,IC50 [2] [µg/mL],IC50 [4] [µg/mL],further results
"COc1cccc2c1C(=O)c1c(O)c3c(c(O)c1C2=O)C[C@@](O)(C(=O)CO)C[C@@H]3O[C@H]1C[C@H](N)[C@H](O)[C@H](C)O1 [Adriamycin, reference compound]",,,"% ILS ([1]; 4 mg/kg i.p., days 5,9,14): +71 % ILS"
"CN(C)CCNC(=O)c1cccn2c(=O)c3cc(-c4cccc(N)c4)ccc3nc12 [Example 13, 11H-Pyrido[2,1-b]quinazoline-6-carboxamide, 2-(3-aminophenyl)-N-[2-(dimethylamino)ethyl]-11-oxo]",3.7,0.4,"% T/C (relative tumor growth treated/placebo) ([3]; 250 mg/kg i.p.): 59 % T/C; % T/C (relative tumor growth treated/placebo) ([3]; 300 mg/kg i.p.): 44 % T/C; % ILS ([1]; 100 mg/kg i.p., days 5,9,13): +18 % ILS; % ILS ([1]; 200 mg/kg i.p., days 5,9,13): +24 % ILS; % ILS ([1]; 250 mg/kg i.p., days 5,9,13): +35 % ILS; % ILS ([5]; 25 mg/kg i.p.): +4 % ILS; % ILS ([5]; 50 mg/kg i.p.): +2 % ILS; % ILS ([5]; 100 mg/kg i.p.): +20 % ILS; % ILS ([5]; 200 mg/kg i.p.): +57 % ILS"
"CN(C)CCNC(=O)c1cccn2c(=O)c3cc(-c4ccccc4-c4ccccc4)ccc3nc12 [Example 14, 11H-Pyrido[2,1-b]quinazoline-6-carboxamide, 2-[1,1'biphenyl]-2-yl-N-[2-(dimethylamino)ethyl]-11-oxo]",4.8,4.4,
"CN(C)CCNC(=O)c1cccn2c(=O)c3cc(-c4cccc(-c5ccccc5)c4)ccc3nc12 [Example 15, 11H-Pyrido[2,1-b]quinazoline-6-carboxamide, 2-[1,1'-biphenyl]-3-yl-N-[2-(dimethylamino)ethyl]-11-oxo]",0.8,0.6,% ILS [6]: -40 % ILS; % ILS ([5]; 50 mg/kg i.p.): +8 % ILS; % ILS ([5]; 100 mg/kg i.p.): +2 % ILS
CN(C)CCNC(=O)c1cccn2c(=O)c3cc(-c4cc5ccccc5c5ccccc45)ccc3nc12 [Example 16],5.3,4.1,
"CN(C)CCNC(=O)c1cccn2c(=O)c3cc(-c4cccc5ccccc45)ccc3nc12 [Example 17, 11H-pyrido[2,1-b)quinazoline-6-carboxamide, N-[2-(dimethylamino)ethyl]-2-(1-naphthalenyl)-11-oxo]",4.7,4.6,
CN(C)CCNC(=O)c1cccn2c(=O)c3cc(-c4cccc(C(F)(F)F)c4)ccc3nc12 [Example 18],4.2,1.1,
"COc1ccc(-c2ccc3nc4c(C(=O)NCCN(C)C)cccn4c(=O)c3c2)cc1 [Example 19, 11H-Pyrido[2,1-b]quinazoline-6-carboxamide, N-[2-(dimethylamino)ethyl]-2-(4-methoxyphenyl)-11-oxo]",3.4,4.3,% ILS ([5]; 50 mg/kg i.p.): -9 % ILS; % ILS ([5]; 100 mg/kg i.p.): +4 % ILS; % ILS ([5]; 200 mg/kg i.p.): +6 % ILS
"CN(C)CCNC(=O)c1cccn2c(=O)c3cc(-c4cc(C(F)(F)F)cc(C(F)(F)F)c4)ccc3nc12 [Example 20, 11H-Pyrido[2,1-b]quinazoline-6-carboxamide, 2-[3,5-bis(trifluoromethyl)phenyl]-N-[2-(dimethylamino)ethyl]-11-oxo]",3,3.8,
CN(C)CCNC(=O)c1cccn2c(=O)c3cc(-c4cccc(N(C)C)c4)ccc3nc12 [Example 21],0.5,0.2,
"Nc1cccc(-c2ccc3nc4c(C(=O)NCCNCCO)cccn4c(=O)c3c2)c1 [Example 24, 11H-Pyrido [2,1-b]quinazoline-6-carboxamide, 2-(3-aminophenyl)-N-[2-[(2-hydroxyethyl)amino]ethyl]-11-oxo-trihydrochloride]",2.1,0.6,"% ILS ([1]; 200 mg/kg i.p., days 5,9,13): +24 % ILS; % ILS ([1]; 300 mg/kg i.p., days 5,9,13): -24 % ILS; % ILS ([5]; 25 mg/kg i.p.): +12 % ILS; % ILS ([5]; 50 mg/kg i.p.): +4 % ILS; % ILS ([5]; 100 mg/kg i.p.): +4 % ILS; % ILS ([5]; 200 mg/kg i.p.): 0 % ILS"
"O=C(NCCNCCO)c1cccn2c(=O)c3cc(-c4ccccc4)ccc3nc12 [Example 26, 11H-pyrido[2,1-b]quinazoline-6-carboxamide, N-[2-[(2-hydroxyethyl)amino]-ethyl]-11-oxo-2-phenyl, dihydrochloride]",3.5,0.8,
"Nc1ccccc1-c1ccc2nc3c(C(=O)NCCNCCO)cccn3c(=O)c2c1 [Example 30, 11H-Pyrido[2,1-b]quinazoline-6-carboxamide, 2-(2-aminophenyl)-N-[2-[(2-hydroxyethyl)amino]ethyl]-11-oxo-trihydrochloride]",6.9,4.8,
"CN(C)CCNC(=O)c1cccn2c(=O)c3ccc(-c4cccc(N)c4)cc3nc12 [Example 35, 11H-Pyrido[2,1-b]quinazoline-6-carboxamide, 3-(3-aminophenyl)-N-[2-(dimethylamino)ethyl]-11-oxo]",0.4,0.5,
"CN(C)CCNC(=O)c1cccn2c(=O)c3ccccc3nc12 [I, N-[2-(dimethylamino)ethyl]-11-oxo-11H-pyrido[2,1-b]quinalzoline-6-carboxamide]",,,activity in P388 mouse model [7]: inactive in a P388 mouse model; in vitro activity [8]: showed some in vitro activity
"CC[C@]1(O)C[C@H]2CN(CCc3c([nH]c4ccccc34)[C@@](C(=O)OC)(c3cc4c(cc3OC)N(C=O)[C@H]3[C@@](O)(C(=O)OC)[C@H](OC(C)=O)[C@]5(CC)C=CCN6CC[C@]43[C@@H]65)C2)C1 [Vincristine, reference compound]",,,% T/C (relative tumor growth treated/placebo) ([3]; 1.0 mg/kg i.p.): 52 % T/C; % ILS ([5]; 0.8 mg/kg i.p.): +114 % ILS
